Test results as given in the supplement of paper PMC10307832.

Experiments:
Assay in all cases: relative viability (nuclei count vs DMSO), 5 days (fraction); higher = more cells survive
Bleomycin + Phenformin = compound: CC1=C(N=C(N=C1N)[C@H](CC(=O)N)NC[C@@H](C(=O)N)N)C(=O)N[C@@H]([C@H](C2=CN=CN2)OC3C(C(C(C(O3)CO)O)O)OC4C(C(C(C(O4)CO)O)OC(=O)N)O)C(=O)N[C@H](C)[C@H]([C@H](C)C(=O)N[C@@H]([C@@H](C)O)C(=O)NCCC5=NC(=CS5)C6=NC(=CS6)C(=O)NCCC[S+](C)C)O [Bleomycin] + N=C(N)NC(=N)NCCc1ccccc1 [Phenformin] (partner 250 µM); details: main component drawn
In short: (§1)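 Relative viability was taken as the ratio of nuclei in treated wells to nuclei in vehicle wells. Lung cancer cell lines in 1536-well plates received compounds by pin tool one day after seeding, either one drug alone or a fixed anchor-drug dose plus five library-drug doses (not always all listed) in √10 steps. Nuclei were counted on 4× images after 5 days of treatment, and values are medians of duplicate plates.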

Etoposide + Trametinib = compound: COc1cc([C@@H]2c3cc4c(cc3[C@@H](O[C@@H]3O[C@@H]5CO[C@@H](C)O[C@H]5[C@H](O)[C@H]3O)[C@H]3COC(=O)[C@H]23)OCO4)cc(OC)c1O [Etoposide] + CC(=O)Nc1cccc(-n2c(=O)n(C3CC3)c(=O)c3c(Nc4ccc(I)cc4F)n(C)c(=O)c(C)c32)c1 [Trametinib] (partner 0.02 µM)
In short: as §1

Etoposide + Pictilisib = compound: COc1cc([C@@H]2c3cc4c(cc3[C@@H](O[C@@H]3O[C@@H]5CO[C@@H](C)O[C@H]5[C@H](O)[C@H]3O)[C@H]3COC(=O)[C@H]23)OCO4)cc(OC)c1O [Etoposide] + CS(=O)(=O)N1CCN(Cc2cc3nc(-c4cccc5[nH]ncc45)nc(N4CCOCC4)c3s2)CC1 [Pictilisib] (partner 1 µM)
In short: as §1

Etoposide + Vorinostat = compound: COc1cc([C@@H]2c3cc4c(cc3[C@@H](O[C@@H]3O[C@@H]5CO[C@@H](C)O[C@H]5[C@H](O)[C@H]3O)[C@H]3COC(=O)[C@H]23)OCO4)cc(OC)c1O [Etoposide] + O=C(CCCCCCC(=O)Nc1ccccc1)NO [Vorinostat] (partner 1 µM)
In short: as §1

Row | Cell Line | relative viability (Bleomycin + Phenformin; first compound 0.01 µM) | relative viability (Bleomycin + Phenformin; first compound 0.03162 µM) | relative viability (Bleomycin + Phenformin; first compound 0.1 µM) | relative viability (Bleomycin + Phenformin; first compound 0.3162 µM) | relative viability (Bleomycin + Phenformin; first compound 1 µM) | relative viability (Etoposide + Trametinib; first compound 0.01 µM) | relative viability (Etoposide + Trametinib; first compound 0.03162 µM) | relative viability (Etoposide + Trametinib; first compound 0.1 µM) | relative viability (Etoposide + Trametinib; first compound 0.3162 µM) | relative viability (Etoposide + Trametinib; first compound 1 µM) | relative viability (Etoposide + Pictilisib; first compound 0.01 µM) | relative viability (Etoposide + Pictilisib; first compound 0.03162 µM) | relative viability (Etoposide + Pictilisib; first compound 0.1 µM) | relative viability (Etoposide + Pictilisib; first compound 0.3162 µM) | relative viability (Etoposide + Pictilisib; first compound 1 µM) | relative viability (Etoposide + Vorinostat; first compound 0.01 µM) | relative viability (Etoposide + Vorinostat; first compound 0.03162 µM) | relative viability (Etoposide + Vorinostat; first compound 0.1 µM) | relative viability (Etoposide + Vorinostat; first compound 0.3162 µM) | relative viability (Etoposide + Vorinostat; first compound 1 µM)
1 | NCI-H647 | 0.209 | 0.207 | 0.148 | 0.078 | 0.0537 | 0.309 | 0.546 | 0.351 | 0.405 | 0.134 | 0.418 | 0.394 | 0.257 | 0.208 | 0.0798 | 0.467 | 0.631 | 0.657 | 0.181 | 0.103
2 | A-427 | 0.253 | 0.349 | 0.269 | 0.175 | 0.113 | 0.695 | 0.812 | 0.621 | 0.47 | 0.296 | 0.726 | 0.817 | 0.507 | 0.469 | 0.169 | 0.864 | 0.864 | 0.761 | 0.625 | 0.309
3 | EMC-BAC-2 | 0.46 | 0.468 | 0.391 | 0.275 | 0.217 | 0.818 | 0.774 | 0.531 | 0.364 | 0.308 | 0.511 | 0.515 | 0.413 | 0.27 | 0.164 | 0.636 | 0.428 | 0.239 | 0.153 | 0.139
4 | NCI-H460 | 0.287 | 0.275 | 0.124 | 0.0345 | 0.0288 | 0.173 | 0.14 | 0.0869 | 0.0497 | 0.021 | 0.393 | 0.434 | 0.151 | 0.076 | 0.0793 | 0.688 | 0.261 | 0.286 | 0.0502 | 0.0457
5 | LCLC-103H | 0.329 | 0.333 | 0.294 | 0.274 | 0.223 | 0.607 | 0.748 | 0.742 | 0.64 | 0.582 | 0.541 | 0.74 | 0.527 | 0.679 | 0.519 | 0.745 | 0.94 | 0.663 | 0.672 | 0.575
6 | HCC-827 | 0.351 | 0.311 | 0.361 | 0.304 | 0.172 | 0.497 | 0.525 | 0.315 | 0.23 | 0.187 | 1.03 | 0.878 | 0.564 | 0.479 | 0.366 | 0.917 | 0.972 | 0.746 | 0.605 | 0.181
7 | NCI-H1355 | 0.432 | 0.487 | 0.429 | 0.27 | 0.194 | 0.396 | 0.478 | 0.27 | 0.384 | 0.256 | 0.492 | 0.552 | 0.276 | 0.284 | 0.144 | 0.635 | 0.687 | 0.392 | 0.461 | 0.272
8 | NCI-H1734 | 0.327 | 0.28 | 0.28 | 0.177 | 0.131 | 0.655 | 0.74 | 0.499 | 0.461 | 0.452 | 0.468 | 0.47 | 0.266 | 0.341 | 0.272 | 0.701 | 0.929 | 0.514 | 0.458 | 0.219
9 | HARA | 0.432 | 0.503 | 0.493 | 0.361 | 0.178 | 0.628 | 0.638 | 1.01 | 0.592 | 0.353 | 0.3 | 0.545 | 0.255 | 0.449 | 0.086 | 0.443 | 0.573 | 0.586 | 0.125 | 0.095
10 | HCC-15 | 0.418 | 0.457 | 0.387 | 0.16 | 0.129 | 0.35 | 0.469 | 0.34 | 0.287 | 0.192 | 0.758 | 0.713 | 0.428 | 0.292 | 0.141 | 0.766 | 0.894 | 0.779 | 0.275 | 0.178
11 | LCLC-97TM1 | 0.337 | 0.401 | 0.241 | 0.192 | 0.173 | 0.22 | 0.218 | 0.174 | 0.126 | 0.115 |  | 0.172 | 0.115 | 0.116 | 0.109 | 0.783 | 0.896 | 0.315 | 0.316 | 0.0855
12 | SK-LU-1 | 0.46 | 0.696 | 0.5 | 0.31 | 0.209 | 0.446 | 0.411 | 0.394 | 0.258 | 0.236 | 0.603 | 0.597 | 0.308 | 0.277 | 0.174 | 0.696 | 0.671 | 0.638 | 0.273 | 0.249
13 | NCI-H1651 | 0.314 | 0.298 | 0.303 | 0.17 | 0.189 | 0.774 | 0.783 | 0.558 | 0.362 | 0.165 | 0.49 | 0.681 | 0.436 | 0.178 | 0.0908 | 0.602 | 0.65 | 0.399 | 0.387 | 0.189
14 | NCI-H2170 | 0.415 | 0.426 | 0.422 | 0.374 | 0.338 | 0.843 | 1.03 |  | 0.877 | 0.723 | 0.315 | 0.306 |  | 0.336 | 0.255 | 0.782 | 0.846 |  | 0.755 | 0.438
15 | NCI-H2023 | 0.34 | 0.326 | 0.312 | 0.157 | 0.101 | 0.448 | 0.647 | 0.559 | 0.452 | 0.186 | 0.225 | 0.255 | 0.145 | 0.124 | 0.0878 | 0.442 | 0.626 | 0.335 | 0.176 | 0.0989
